Bioavailability and solubility data for one compound are collected here from US8026271B2, “Formulations of indol-3-yl-2-oxoacetamide compounds” (National Health Research Institutes, priority 2008, dated 2011).

Data set [1] in a line: Oral bioavailability of BPR0C261 (po vs IV PK profiles, plasma by HPLC-Tandem Mass spectrometry). The data set is classed as in vivo. Conditions: mouse, 2 mg/kg, po by gavage, read-out: Oral bioavailability (F %). How it is done:
The oral bioavailability of BPR0C261 was assessed by comparing the pharmacokinetic (“PK”) profiles obtained from orally administered (“po”) BPR0C261 in various oral formulation described herein with the PK profile obtained from intravenously administered (“IV”) BPR0C261.
An intravenous formulation of BPR0C261 (carriers: 5% DMSO, 25% Cremophor EL, and 70% water, v/v/v) was administered intravenously by a bolus injection to a group of three mice each via the tail vein, in a single dose of 2 mg/Kg body weight. A blood sample (0.15 mL) was drawn at different points (pre-dose, 2 min, 5 min, 15 min, 30 min. 1 hr, 2 hr, 4 hr, 6 hr, 8 hr, and 24 hr after dosing) from each animal via the cardiac puncture and stored in ice (0-5° C.). […]
Plasma was separated from the blood sample by centrifugation at 15,000 g for 15 min at 4° C. […] All plasma samples were analyzed for the BPR0C261 concentrations by HPLC-Tandem Mass spectrometry.
BPR0C261 plasma concentration data were used to obtain the PK profile for the IV or po administration, i.e., a plasma-concentration vs. time curve. The area under the curve (“AUC”) was then calculated. Oral bioavailability (F %) was determined by comparing the dose-normalized area under the curve for the oral formulation (“AUCpo/dosepo”) with that for the intravenous formulation (“AUCIV/doseIV”), i.e., F %=[AUCpo/dosepo]/[AUCIV/doseIV].

Data set [2] in a line: Solubility of BPR0C261 in different carriers or mixed carriers. It counts as physicochemical. Particulars: room temperature. How it is done:
The solubility of BPR0C261 in different drug carriers or mixed carriers was evaluated. The solubility is defined as the maximum amount of a compound dissolved in a carrier or mixed carrier at room temperature.

≈ marks a conversion by molar mass, not a printed value. Read-outs that look alike come from different tables or passages of the source.

Take `Cc1cc(Cn2cc(C(=O)C(=O)Nc3cc(C)ns3)c3ccccc32)on1` [BPR0C261, N-(3-methylisothiazol-5-yl)-2-[1-(3-methylisoxazol-5-ylmethyl)-1H-indol-3-yl]-2-oxoacetamide]: the bioavailability in data set [1] (formulation containing 5% DMSO, 25% Cremophor EL, and 70% water (v/v/v), vs IV 2 mg/Kg) was 18%; in data set [1] (formulations containing TPGS, Transcutol, and optionally PEG 400, vs IV 2 mg/Kg) it was 25 to 80%. Also, the solubility in data set [2] (aqueous with cosolvent or surfactant or cyclodextrin, carrier 3: DMSO (20%), Tween 80 (10%), and DDW (70%)) was less than 5000 µg/mL; in data set [2] (aqueous with cosolvent or surfactant or cyclodextrin, carrier 13: DMSO (5%), Cremophor EL (25%), and DDW (70%)), less than 5000 µg/mL; in data set [2] (aqueous with cosolvent or surfactant or cyclodextrin, carrier 14: Methylcellulose (1%), Tween 80 (2%), PEG 400 (10%), and DDW (87%)), less than 1000 µg/mL; in data set [2] (carrier 1: Double distilled water (DDW)) it was roughly 0.12 µg/mL (≈ 0.000315 mM); in data set [2] (organic solvent or mixture, carrier 2: DMSO), roughly 5000 µg/mL (≈ 13.1 mM); in data set [2] (organic solvent or mixture, carrier 4: Ethanol (3%), Glycerol (2%), PEG 400 (70%), PG (20%), and Transcutol (5%)) it was 10000 to 30000 µg/mL (≈ 26.3 to 78.9 mM). Moreover, the solubility in data set [2] (organic solvent or mixture, carrier 5: Glycerol (5%) and PEG 400 (95%)) is 10000 to 30000 µg/mL (≈ 26.3 to 78.9 mM); in data set [2] (organic solvent or mixture, carrier 6: TPGS (20%) and PEG 400 (80%)), 10000 to 30000 µg/mL (≈ 26.3 to 78.9 mM); in data set [2] (organic solvent or mixture, carrier 7: Transcutol (10%) and PEG 400 (90%)), 10000 to 30000 µg/mL (≈ 26.3 to 78.9 mM); in data set [2] (organic solvent or mixture, carrier 8: DMSO (10%), PEG 400 (80%), and propylene glycol (10%)), 10000 to 30000 µg/mL (≈ 26.3 to 78.9 mM); in data set [2] (organic solvent or mixture, carrier 9: Transcutol (10%), Cremophor EL (20%), and PEG 400 (70%)), 10000 to 30000 µg/mL (≈ 26.3 to 78.9 mM); in data set [2] (organic solvent or mixture, carrier 10: TPGS (20%), Transcutol (20%), and PEG 400 (60%)), roughly 50000 µg/mL (≈ 131 mM). In addition, the solubility in data set [2] (organic solvent or mixture, carrier 11: TPGS (40%), Transcutol (20%), and PEG 400 (40%)) is roughly 50000 µg/mL (≈ 131 mM); in data set [2] (organic solvent or mixture, carrier 12: TPGS (75%) and Transcutol (25%)), roughly 50000 µg/mL (≈ 131 mM).
